Experimental data from patent US10081632B2, “Substituted tetrahydropyrido[3′,2′:4,5]pyrrolo[1,2-α]pyrazine-2-carboxamides as RSK inhibitors” (Phoenix Molecular Designs, priority 2016, dated 2018).
Marks after values point to notes of the source that are not given here.

What was measured:
[1] = target: RSK2 (Homo sapiens (Human), UniProt P51812); experiment: Radioisotope kinase assay (SignalChem), RSK2; assay type: biochemical; conditions: 33P-ATP, 30° C., 15 minutes
Experimental: The assay conditions for the RSK2 kinase target were optimized to yield acceptable enzymatic activity. In addition, the assays were optimized to give high signal-to-noise ratio.
Radioisotope assays (SignalChem) were performed for the evaluation of the kinase target profiling and all assays were performed in a designated radioactive working area. The kinase targets were RSK1, RSK2, RSK3, RSK4 and MK2.
The assay was initiated by the addition of ^33P-ATP and the reaction mixture incubated at 30° C. for 15 minutes. After the incubation period, the assay was terminated by spotting 10 μL of the reaction mixture onto Multiscreen phosphocellulose P81 plate. The Multiscreen phosphocellulose P81 plate was washed 3 times for approximately 15 minutes each in a 1% phosphoric acid solution. The radioactivity on the P81 plate was counted in the presence of scintillation fluid in a Trilux scintillation counter.
Blank controls were set up for each target kinase which included all the assay components except the addition of the appropriate substrate (which was replaced with equal volume of assay dilution buffer). The corrected activity for each target kinase was determined by removing the blank control value.

[2] = test system: 4T1 cells; experiment: Monolayer growth inhibition, Alamar blue assay; assay type: cell-based; conditions: Mus musculus, 4T1, 4T1 (TNBC), 5 days, single dose on day 1
Text: (§1) In all instances a single dose was given on day 1 of the experiment.

[3] = test system: HCC1937 cells; experiment: Monolayer growth inhibition, Alamar blue assay; assay type: cell-based; conditions: Homo sapiens, HCC1937, HCC1937 (TNBC, BRCA Mutant), 5 days, single dose on day 1
Text: as §1

[4] = test system: JIMT-1 cells; experiment: Monolayer growth inhibition, Alamar blue assay; assay type: cell-based; conditions: Homo sapiens, JIMT-1, JIMT-1 (HER2), 5 days, single dose on day 1
Text: as §1

[5] = test system: PC3 cells; experiment: Monolayer growth inhibition, Alamar blue assay; assay type: cell-based; conditions: Homo sapiens, PC-3; PC3 (Prostate), 5 days, single dose on day 1
Text: as §1

[6] = test system: SUM149-PTXR cells; experiment: Monolayer growth inhibition, Alamar blue assay; assay type: cell-based, Human; conditions: SUM149-PTXR (TNBC, BRCA Mutant), 5 days, single dose on day 1
Text: as §1

[7] = test system: T47D cells; experiment: Monolayer growth inhibition, Alamar blue assay; assay type: cell-based, Human; conditions: T47D (ER/PR), 5 days, single dose on day 1
Text: as §1

[8] = test system: HCC1937 cells; experiment: Monolayer growth inhibition, crystal violet assay; assay type: cell-based; conditions: Homo sapiens, HCC1937, HCC1937 (TNBC, BRCA Mutant), 5 days, single dose on day 1
Text: (§2) In all instances a single dose was given on day 1 of the experiment. […] Complete (100%) growth suppression was achievable with several of the compounds in multiple different cell lines.

[9] = test system: JIMT-1 cells; experiment: Monolayer growth inhibition, crystal violet assay; assay type: cell-based; conditions: Homo sapiens, JIMT-1, JIMT-1 (HER2), 5 days, single dose on day 1
Text: as §2

[10] = test system: MDA-MB-468 cells; experiment: Monolayer growth inhibition, crystal violet assay; assay type: cell-based; conditions: Homo sapiens, MDA-MB-468, MDA-MB-468 (TNBC), 5 days, single dose on day 1
Text: as §2

[11] = test system: T47D cells; experiment: Monolayer growth inhibition, crystal violet assay; assay type: cell-based; conditions: Homo sapiens, T47D, T47D (ER/PR), 5 days, single dose on day 1
Text: as §2

[12] = test system: 4T1 cells; experiment: Monolayer growth inhibition, crystal violet assay; assay type: cell-based; conditions: Mus musculus, 4T1, 4T1 (TNBC), 5 days, single dose on day 1
Text: as §1

[13] = test system: HCC1143 cells; experiment: Monolayer growth inhibition, crystal violet assay; assay type: cell-based; conditions: Homo sapiens, HCC1143, HCC1143 (TNBC), 5 days, single dose on day 1
Text: as §1

[14] = test system: SUM149 cells; experiment: Monolayer growth inhibition, crystal violet assay; assay type: cell-based; conditions: Homo sapiens, SUM149, SUM149 (TNBC, BRCA Mutant), 5 days, single dose on day 1
Text: as §1

[15] = test system: MDA-MB-231 cells; experiment: Soft agar growth inhibition assay; assay type: cell-based; conditions: Homo sapiens, MDA-MB-231; growth in soft agar (SA); read-out: MDA-MB-231 IC50 (SA)
[16] = test system: MDA-MB-468 cells; experiment: Soft agar growth inhibition assay; assay type: cell-based, Human; conditions: MDA-MB-468 (TNBC), 14-22 days
[17] = test system: JIMT-1 cells; experiment: Immuno-oncology gene expression (HLA-DRA, CIITA, CD274 mRNA); assay type: cell-based, Human
Text: (§3) A key feature of cancer is low immunogenicity. This can occur by several mechanisms that allow the cells to escape immune recognition. […] HLA-DRA is a member of MHC-II genes and CIITA is the master regulator of MHC II transcription. Thus it was surprising that CIITA, which would be expected to regulate MHC II gene expression, was not altered by RSK inhibition. […] HLA-DRA is important for immune recognition while PD-L1 is involved in immune checkpoints.

[18] = test system: MDA-MB-231 cells; experiment: as above; assay type: cell-based, Human; conditions: Compound 16 2 or 4 uM, Compound 18 1, 2, or 4 uM
Text: as §3

[19] = test system: CD34+ cells; experiment: Colony forming unit hematopoietic stem cell assay; assay type: cell-based, human
Experimental: The hematopoietic colony forming cell assay was conducted based on a protocol outlined by StemCell Technologies. […] Following the addition of CD34^+ cells isolated from human cord blood or peripheral blood (StemCell Technologies) at a final concentration of 5×10^2 cells per dish, the tubes were vortexed and allowed to stand for 5 minutes at room temperature. Next, the MethoCult mixtures were dispensed into 35 mm dishes (Corning Incorporated) through blunt end needles (StemCell Technologies) and 5 ml syringes (BD Biosciences) at a volume of 1.1 ml per dish. The medium was evenly distributed across the surface of each dish by gentle tilting and rotation. The dishes were then placed in a 100 mm culture dish (Grenier Bio-One) containing additional 35 mm dishes with sterile water to maintain humidity. […] The number of myeloid and erythroid derived colonies in both the treated and control dishes were counted and compared.

[20] = test system: MDA-MB-231 cells; experiment: Combination with paclitaxel, monolayer growth (crystal violet); conditions: MDA-MB-231, 5 days
Experimental: 1×10^3 cells per well were seeded for a final volume of 200 μl per well and plates were incubated for 5 days at 37° C. in a humidified incubator with 5% CO2. Following the incubation period, cell survival was quantified by Alamar blue assay (Life Technologies). Briefly, media from each well was replaced with 100 μl of phosphate buffer saline (PBS, Life Technologies) and cells were incubated with 5% Alamar blue, which incorporates a propriety redox indicator that changes colour in response to metabolic activity, for up to 2 hours. During this period of incubation, the absorbance at 570 nm and 600 nm was measured at various time points, depending on the cell line or sample. Percent survival was calculated by comparing the absorbance ratio of the test well to the control well multiplied by 100%, as indicated in the following formula:
Following, plates were prepared for crystal violet staining. To begin, 100 μl of an 8% formaldehyde (Alfa Aesar) solution diluted in PBS was added to each well and plates were stored at 4° C. overnight. Next, the formaldehyde solution was discarded and the wells were washed with 200 μl ultrapure water per well three times. Following, 50 μl of a 0.5% crystal violet solution (0.5% w/v crystal violet (Alfa Aesar), 25% methanol (VWR)) was added to each well and incubated at room temperature for 20 minutes. The crystal violet solution was discarded and wells were washed with 200 μl ultrapure water per well three times. Next, 50 μl of a 5% sodium dodecyl sulphate (SDS) (Alfa Aesar) was added to each well and the absorbance at 590 nm was measured.

[21] = test system: phosphorylated Y-box binding protein-1 (YB-1) at serine 102 (P-YB-1S102); experiment: Immunoblotting of cell signalling, loss of P-YB-1 in MDA-MB-231 cells
Experimental: Following desired experimental conditions, breast cancer cell lines grown and treated in 6 well plates or 100 mm culture dishes (Grenier Bio-One) were placed on ice and the supernatant from each well was removed and the cells were washed in cold PBS. Following removal of PBS, cells were exposed to radioimmunoprecipitation assay (RIPA) buffer (50 mM Tris-HCl (pH 8), 150 mM NaCl, 1% NP-40, 0.5% sodium deoxycholate, 0.1% SDS; Fisher Scientific) supplemented with 1% phosphatase inhibitor (Fisher Scientific) and 1% protease inhibitor (Fisher Scientific) for 10 minutes. Samples were transferred to eppendorf tubes, vortexed and then centrifuged at 14 000 rpm for 10 minutes. Supernatants were collected as whole cell lysates.
To begin, the protein content of the lysates was measured using the Bicinchoninic Acid (BCA) Protein Assay Kit (Pierce), which included a protein standard curve generated with bovine serum albumin. Appropriate volumes of samples and loading buffer (50 mM Tris-HCl (pH 6.8), 2% SDS, 10% glycerol, 1% j-mercaptoethanol, 12.5 mM EDTA, 0.02% bromophenol blue) were mixed, ensuring that equal amounts of protein were loaded. For the majority of experiments in this study, 30 μg of protein per well was loaded. Samples were then resolved on SDS-PAGE (polyacrylamide gel electrophoresis) using various percentages of acrylamide gels (8%-12%), depending on the proteins of interest. SDS-PAGE was run in SDS running buffer (25 mM Tris, 192 mM glycine, 0.1% SDS) and then transferred to nitrocellulose membranes (Bio-Rad) in transfer buffer (48 mM Tris, 39 mM glycine, 20% (v/v) methanol) at 100 volts for 90 minutes at room temperature. Immunoblots were then blocked in 5% skim milk in tris-buffered saline with 0.1% Tween-20 (TBS-T; 50 mM Tris-HCl, pH 7.5, 150 mM NaCl, 0.1% (v/v) Tween-20 (Fisher Scientific)) for 1 to 2 hours. Immunoblots were then incubated with selected primary antibodies diluted in TBS-T with 0.1% gelatin (Bio-Rad) and 0.05% sodium azide (Alfa Aesar) overnight. Following washes with TBT-T 4 times for 8 to 10 minutes, immunoblots were incubated with appropriate secondary antibodies conjugated to horseradish peroxidise (Cell Signalling Technology) diluted in TBS-T plus 5% skim milk at a ratio of 1:5000 for 2 hours at room temperature. After an additional round of washes in TBS-T, immunoblots were exposed to combined enhanced chemiluminescence (ECL) reagents (Fisher Scientific) for 1 minute and developed using ChemiDoc MP Imaging System (Bio-Rad). For certain immunoblots, bands of proteins of interest were scanned and band intensity ratios were determined by densitometric analysis (ImageJ). […] Total YB-1 was used as a loading control (1:5000 Abcam). […] To assess whether cells are actively undergoing cell death, the activity of poly ADP ribose polymerase (PARP) (1:1000 CST) was also measured using the immunoblotting method.

Sequence of RSK2 (P51812 whole entry): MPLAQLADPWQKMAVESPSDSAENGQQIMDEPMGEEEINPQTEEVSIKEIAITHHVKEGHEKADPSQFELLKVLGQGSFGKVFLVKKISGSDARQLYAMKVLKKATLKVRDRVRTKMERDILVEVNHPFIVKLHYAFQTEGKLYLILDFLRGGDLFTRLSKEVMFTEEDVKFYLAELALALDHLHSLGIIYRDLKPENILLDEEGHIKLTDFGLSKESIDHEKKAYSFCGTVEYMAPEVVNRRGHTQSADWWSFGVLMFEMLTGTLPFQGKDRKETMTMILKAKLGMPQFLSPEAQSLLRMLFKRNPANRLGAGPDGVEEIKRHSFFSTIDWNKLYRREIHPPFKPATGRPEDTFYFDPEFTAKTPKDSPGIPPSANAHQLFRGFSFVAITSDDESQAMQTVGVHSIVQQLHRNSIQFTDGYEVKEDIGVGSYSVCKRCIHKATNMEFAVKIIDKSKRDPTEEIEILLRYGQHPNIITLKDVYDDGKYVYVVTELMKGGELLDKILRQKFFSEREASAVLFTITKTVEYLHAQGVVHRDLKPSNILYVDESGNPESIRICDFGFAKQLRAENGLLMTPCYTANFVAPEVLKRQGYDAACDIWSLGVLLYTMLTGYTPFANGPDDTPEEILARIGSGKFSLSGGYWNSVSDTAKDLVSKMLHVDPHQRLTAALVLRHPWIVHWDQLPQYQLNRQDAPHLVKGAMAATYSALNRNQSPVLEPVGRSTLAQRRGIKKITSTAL

SMILES: C[C@@H]1CNC(=O)c2cc3ccc(C(=O)Nc4cnn(Cc5ccc(N)cc5)c4)nc3n21 [Compound 18, (R)—N-(1-(4-aminobenzyl)-1H-pyrazol-4-yl)-9-methyl-6-oxo-6,7,8,9-tetrahydropyrido[3′,2′:4,5]pyrrolo[1,2-a]pyrazine-2-carboxamide]
- IC50 [1]: 0.02 µM
- IC50 [2]: 5.3 ± 2.5 µM
- IC50 [3]: 9.2 ± 1.1 µM
- IC50 [4]: 13.1 ± 6.4 µM
- IC50 [5]: 5.5 ± 0.5 µM
- IC50 [6]: 2.1 ± 0.3 µM
- IC50 [7]: 3.6 ± 1.7 µM
- IC50 [8]: 7.7 ± 3.5 µM
- IC50 [9]: 11.1 ± 0.5 µM
- IC50 [10]: 2.3 ± 0.9 µM
- IC50 [11]: 2.2 ± 0.8 µM
- IC50 [12]: 5.3 ± 1.1 µM
- IC50 [13]: 2.4 ± 0.8 µM
- IC50 [14]: 2.4 ± 0.7 µM
- IC50 [15]: 0.1 µM
- IC50 [16]: 0.3 ± 0.1 µM
- HLA-DRA mRNA [17]: elevated levels of HLA-DRA mRNA
- mRNA expression of CIITA [17]: little effect
- CD274 (gene encoding PD-L1) levels ([17]; 1-20 uM): inhibited CD274
- CD274 (gene encoding PD-L1) levels [18]: reduced levels of CD274
- HLA-DRA mRNA [18]: elevated levels of HLA-DRA mRNA
- mRNA expression of CIITA [18]: little effect
- IC50 ([19]; Homo sapiens, Hematopoietic stem cell, CD34+ cells from peripheral blood, read-out: CD34+ (PB) IC50): 16.3 µM
- Therapeutic Window ([19]; ratio IC50 against CD34+ cells and MDA-MB-231 cells (SA)): 163X
- Coefficient of Drug Interaction (CDI) ([20]; Compound 18 0.2 μM with paclitaxel (0.3 nM)): 1.6
- Coefficient of Drug Interaction (CDI) ([20]; Compound 18 0.4 μM with paclitaxel (0.3 nM)): 1.2
- Coefficient of Drug Interaction (CDI) ([20]; Compound 18 0.8 μM with paclitaxel (0.3 nM), considered synergistic): 0.8*
- Coefficient of Drug Interaction (CDI) ([20]; Compound 18 1.6 μM with paclitaxel (0.3 nM), considered synergistic): 0.4*
- Coefficient of Drug Interaction (CDI) ([20]; Compound 18 3.1 μM with paclitaxel (0.3 nM), considered synergistic): 0.2*
- Coefficient of Drug Interaction (CDI) ([20]; Compound 18 […] with paclitaxel (0.3 nM), considered synergistic): 0.4*
- Loss of P-YB-1 ([21]; MDA-MB-231 cells, 0.01, 0.1, 1, or 10 uM, 24 hrs): dose dependent loss of P-YB-1
- Loss of P-YB-1 ([21]; MDA-MB-231 cells, 0.01-1 uM, 96 hrs): dose dependent loss of P-YB-1
